Assay results taken from BigSolDB 2.1.

Compound: CCS(=O)(=O)c1cccnc1S(=O)(=O)NC(=O)Nc1nc(OC)cc(OC)n1
- solubility (mole fraction) (in DMF, 278.15 K): 5.64e-05
- solubility (mole fraction) (in DMF, 283.15 K): 7.09e-05
- solubility (mole fraction) (in DMF, 288.15 K): 8.7e-05
- solubility (mole fraction) (in DMF, 293.15 K): 0.000106
- solubility (mole fraction) (in DMF, 298.15 K): 0.000125
- solubility (mole fraction) (in DMF, 303.15 K): 0.000148
- solubility (mole fraction) (in DMF, 308.15 K): 0.000172
- solubility (mole fraction) (in DMF, 313.15 K): 0.000199
- solubility (mole fraction) (in DMF, 318.15 K): 0.000228
- solubility (mole fraction) (in DMF, 323.15 K): 0.000262
- solubility (mole fraction) (in ethanol, 278.15 K): 1.91e-05
- solubility (mole fraction) (in ethanol, 283.15 K): 2.32e-05
- solubility (mole fraction) (in ethanol, 288.15 K): 2.82e-05
- solubility (mole fraction) (in ethanol, 293.15 K): 3.4e-05
- solubility (mole fraction) (in ethanol, 298.15 K): 4.03e-05
- solubility (mole fraction) (in ethanol, 303.15 K): 4.76e-05
- solubility (mole fraction) (in ethanol, 308.15 K): 5.52e-05
- solubility (mole fraction) (in ethanol, 313.15 K): 6.36e-05
- solubility (mole fraction) (in ethanol, 318.15 K): 7.34e-05
- solubility (mole fraction) (in ethanol, 323.15 K): 8.5e-05
- solubility (mole fraction) (in ethylene glycol, 278.15 K): 7.03e-06
- solubility (mole fraction) (in ethylene glycol, 283.15 K): 8.83e-06
- solubility (mole fraction) (in ethylene glycol, 288.15 K): 1.07e-05
- solubility (mole fraction) (in ethylene glycol, 293.15 K): 1.28e-05
- solubility (mole fraction) (in ethylene glycol, 298.15 K): 1.53e-05
- solubility (mole fraction) (in ethylene glycol, 303.15 K): 1.79e-05
- solubility (mole fraction) (in ethylene glycol, 308.15 K): 2.08e-05
- solubility (mole fraction) (in ethylene glycol, 313.15 K): 2.38e-05
- solubility (mole fraction) (in ethylene glycol, 318.15 K): 2.76e-05
- solubility (mole fraction) (in ethylene glycol, 323.15 K): 3.19e-05
- solubility (mole fraction) (in methanol, 278.15 K): 2.17e-05
- solubility (mole fraction) (in methanol, 283.15 K): 2.67e-05
- solubility (mole fraction) (in methanol, 288.15 K): 3.26e-05
- solubility (mole fraction) (in methanol, 293.15 K): 3.96e-05
- solubility (mole fraction) (in methanol, 298.15 K): 4.7e-05
- solubility (mole fraction) (in methanol, 303.15 K): 5.5e-05
- solubility (mole fraction) (in methanol, 308.15 K): 6.37e-05
- solubility (mole fraction) (in methanol, 313.15 K): 7.48e-05
- solubility (mole fraction) (in methanol, 318.15 K): 8.56e-05
- solubility (mole fraction) (in methanol, 323.15 K): 9.85e-05
- solubility (mole fraction) (in water, 278.15 K): 2.28e-07
- solubility (mole fraction) (in water, 283.15 K): 2.82e-07
- solubility (mole fraction) (in water, 288.15 K): 3.44e-07
- solubility (mole fraction) (in water, 293.15 K): 4.13e-07
- solubility (mole fraction) (in water, 298.15 K): 4.88e-07
- solubility (mole fraction) (in water, 303.15 K): 5.76e-07
- solubility (mole fraction) (in water, 308.15 K): 6.77e-07
- solubility (mole fraction) (in water, 313.15 K): 7.75e-07
- solubility (mole fraction) (in water, 318.15 K): 8.96e-07
- solubility (mole fraction) (in water, 323.15 K): 1.02e-06
